Reference: ChEMBL document CHEMBL5465560, “Selectivity Literature for EUbOPEN Chemogenomic Library” (2024)
Values belong to the compound of their own block, whether it stands above or below them.

Columns and labels:
[1] = target: Ribosomal protein S6 kinase beta-1 (Homo sapiens, UniProt P23443); assay: Selectivity interaction (ProQinase) EUB0000171b RPS6KB1
[2] = target: T1, Serine/threonine-protein kinase Nek9 (Homo sapiens) (UniProt Q8TD19); assay: Selectivity interaction (ProQinase) EUB0000171b NEK9
T1 sequence (whole entry): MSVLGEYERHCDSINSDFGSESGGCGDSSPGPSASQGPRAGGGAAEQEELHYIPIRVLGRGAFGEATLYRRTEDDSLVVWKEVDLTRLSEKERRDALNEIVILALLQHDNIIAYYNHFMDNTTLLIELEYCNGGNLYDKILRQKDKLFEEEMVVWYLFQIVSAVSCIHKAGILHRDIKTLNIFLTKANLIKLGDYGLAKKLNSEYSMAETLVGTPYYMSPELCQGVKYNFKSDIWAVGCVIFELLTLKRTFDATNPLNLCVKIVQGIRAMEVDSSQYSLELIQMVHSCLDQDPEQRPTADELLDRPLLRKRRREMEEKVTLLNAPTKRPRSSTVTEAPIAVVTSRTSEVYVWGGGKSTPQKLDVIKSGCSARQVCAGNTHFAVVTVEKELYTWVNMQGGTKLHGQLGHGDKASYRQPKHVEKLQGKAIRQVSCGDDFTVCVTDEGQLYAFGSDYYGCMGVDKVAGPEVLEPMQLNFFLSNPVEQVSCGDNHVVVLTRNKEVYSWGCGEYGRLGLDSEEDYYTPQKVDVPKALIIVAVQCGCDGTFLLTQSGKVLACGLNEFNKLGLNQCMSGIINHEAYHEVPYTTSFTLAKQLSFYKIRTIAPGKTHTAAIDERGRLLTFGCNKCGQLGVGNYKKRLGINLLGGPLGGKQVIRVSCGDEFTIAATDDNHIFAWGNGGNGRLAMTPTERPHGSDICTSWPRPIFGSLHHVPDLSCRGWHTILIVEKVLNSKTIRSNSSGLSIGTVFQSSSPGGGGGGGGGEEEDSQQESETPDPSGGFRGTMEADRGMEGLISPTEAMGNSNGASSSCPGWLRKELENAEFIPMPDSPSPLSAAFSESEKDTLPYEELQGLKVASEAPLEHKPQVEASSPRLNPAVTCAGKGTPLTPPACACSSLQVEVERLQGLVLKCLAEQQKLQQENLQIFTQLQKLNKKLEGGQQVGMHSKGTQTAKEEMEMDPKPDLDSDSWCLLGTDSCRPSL

[3] = target: T2, Ephrin type-B receptor 2 (Homo sapiens) (UniProt P29323); assay: Selectivity interaction (ProQinase) EUB0000171b EPHB2
T2 sequence (whole entry): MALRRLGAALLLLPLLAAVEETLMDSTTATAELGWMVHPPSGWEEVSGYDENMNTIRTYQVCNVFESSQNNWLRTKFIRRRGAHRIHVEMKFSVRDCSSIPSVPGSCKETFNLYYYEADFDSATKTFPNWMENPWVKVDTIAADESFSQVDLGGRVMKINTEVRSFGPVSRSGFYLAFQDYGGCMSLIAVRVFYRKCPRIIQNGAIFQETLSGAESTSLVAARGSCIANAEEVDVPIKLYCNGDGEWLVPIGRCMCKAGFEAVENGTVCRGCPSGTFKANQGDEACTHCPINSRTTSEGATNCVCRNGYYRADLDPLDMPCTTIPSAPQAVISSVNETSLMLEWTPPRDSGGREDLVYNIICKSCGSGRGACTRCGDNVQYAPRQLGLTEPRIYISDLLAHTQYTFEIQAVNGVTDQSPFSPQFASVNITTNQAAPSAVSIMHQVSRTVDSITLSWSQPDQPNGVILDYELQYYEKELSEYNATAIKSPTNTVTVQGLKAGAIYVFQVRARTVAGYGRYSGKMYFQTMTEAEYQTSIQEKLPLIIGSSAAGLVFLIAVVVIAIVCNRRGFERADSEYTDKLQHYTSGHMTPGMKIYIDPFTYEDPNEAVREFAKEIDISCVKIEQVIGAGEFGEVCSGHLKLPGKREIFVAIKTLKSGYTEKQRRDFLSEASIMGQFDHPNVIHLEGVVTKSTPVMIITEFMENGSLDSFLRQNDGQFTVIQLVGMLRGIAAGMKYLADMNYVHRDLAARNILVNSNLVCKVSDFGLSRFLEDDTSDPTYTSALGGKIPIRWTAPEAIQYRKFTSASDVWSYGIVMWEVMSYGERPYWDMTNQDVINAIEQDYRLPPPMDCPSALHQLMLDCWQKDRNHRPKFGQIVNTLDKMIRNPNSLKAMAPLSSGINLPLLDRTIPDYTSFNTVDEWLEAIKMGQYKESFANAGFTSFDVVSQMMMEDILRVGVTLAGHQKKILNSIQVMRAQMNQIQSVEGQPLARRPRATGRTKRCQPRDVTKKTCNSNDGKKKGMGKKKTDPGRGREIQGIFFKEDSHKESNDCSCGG

[4] = target: L-type calcium channel Cav1.2 (CACNA1C) (Homo sapiens, UniProt Q13936); assay: Selectivity interaction (Panel of kinases, GPCRs, ion channels and transporters (enzymatic assay)) EUB0000223bCl CACNA1C
[5] = target: Mitogen-activated protein kinase kinase kinase 11 (Homo sapiens) (UniProt Q16584); assay: Selectivity interaction (LanthaScreen Eu Kinase Binding Assay) EUB0001632a MAP3K11; details: at 10 µM
[6] = target: T3, G protein-coupled receptor kinase 3 (Homo sapiens) (UniProt P35626); assay: Selectivity interaction (KinomeScan (DiscoverX)) EUB0000695a ADRBK2; details: at 100 nM
T3 sequence (whole entry): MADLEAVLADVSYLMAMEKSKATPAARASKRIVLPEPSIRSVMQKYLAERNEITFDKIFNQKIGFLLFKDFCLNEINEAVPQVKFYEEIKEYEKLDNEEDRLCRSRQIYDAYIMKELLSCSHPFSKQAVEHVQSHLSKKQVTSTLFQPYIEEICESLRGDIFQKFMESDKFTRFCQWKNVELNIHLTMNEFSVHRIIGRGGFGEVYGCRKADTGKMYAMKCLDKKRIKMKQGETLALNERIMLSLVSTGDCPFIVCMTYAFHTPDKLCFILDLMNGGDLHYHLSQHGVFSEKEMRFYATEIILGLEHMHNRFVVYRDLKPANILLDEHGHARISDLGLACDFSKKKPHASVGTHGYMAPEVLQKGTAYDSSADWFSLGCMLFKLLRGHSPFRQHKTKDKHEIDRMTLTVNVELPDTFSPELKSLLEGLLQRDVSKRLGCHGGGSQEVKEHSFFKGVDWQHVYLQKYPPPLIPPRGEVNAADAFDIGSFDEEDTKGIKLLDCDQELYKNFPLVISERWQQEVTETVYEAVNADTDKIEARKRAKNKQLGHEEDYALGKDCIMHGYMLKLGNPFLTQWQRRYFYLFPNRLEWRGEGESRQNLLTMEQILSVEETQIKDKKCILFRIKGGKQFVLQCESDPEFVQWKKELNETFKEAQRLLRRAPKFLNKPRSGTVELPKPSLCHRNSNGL

Ribosomal protein S6 kinase beta-1, sequence (P23443 whole entry, looked up): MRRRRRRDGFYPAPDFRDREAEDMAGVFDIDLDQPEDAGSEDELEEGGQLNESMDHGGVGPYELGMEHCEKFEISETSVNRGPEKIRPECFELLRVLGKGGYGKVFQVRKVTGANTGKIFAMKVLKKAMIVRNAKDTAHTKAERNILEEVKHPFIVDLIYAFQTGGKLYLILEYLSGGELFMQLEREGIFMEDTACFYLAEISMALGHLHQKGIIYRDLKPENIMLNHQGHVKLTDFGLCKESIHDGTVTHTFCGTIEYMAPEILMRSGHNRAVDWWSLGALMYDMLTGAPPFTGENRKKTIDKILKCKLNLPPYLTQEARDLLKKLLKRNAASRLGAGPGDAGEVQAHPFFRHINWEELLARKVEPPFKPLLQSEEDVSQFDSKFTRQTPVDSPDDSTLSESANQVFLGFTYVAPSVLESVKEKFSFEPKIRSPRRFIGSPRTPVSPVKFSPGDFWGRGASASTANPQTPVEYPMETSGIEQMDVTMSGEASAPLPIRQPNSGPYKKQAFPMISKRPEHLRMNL
L-type calcium channel Cav1.2 (CACNA1C), sequence (Q13936 whole entry): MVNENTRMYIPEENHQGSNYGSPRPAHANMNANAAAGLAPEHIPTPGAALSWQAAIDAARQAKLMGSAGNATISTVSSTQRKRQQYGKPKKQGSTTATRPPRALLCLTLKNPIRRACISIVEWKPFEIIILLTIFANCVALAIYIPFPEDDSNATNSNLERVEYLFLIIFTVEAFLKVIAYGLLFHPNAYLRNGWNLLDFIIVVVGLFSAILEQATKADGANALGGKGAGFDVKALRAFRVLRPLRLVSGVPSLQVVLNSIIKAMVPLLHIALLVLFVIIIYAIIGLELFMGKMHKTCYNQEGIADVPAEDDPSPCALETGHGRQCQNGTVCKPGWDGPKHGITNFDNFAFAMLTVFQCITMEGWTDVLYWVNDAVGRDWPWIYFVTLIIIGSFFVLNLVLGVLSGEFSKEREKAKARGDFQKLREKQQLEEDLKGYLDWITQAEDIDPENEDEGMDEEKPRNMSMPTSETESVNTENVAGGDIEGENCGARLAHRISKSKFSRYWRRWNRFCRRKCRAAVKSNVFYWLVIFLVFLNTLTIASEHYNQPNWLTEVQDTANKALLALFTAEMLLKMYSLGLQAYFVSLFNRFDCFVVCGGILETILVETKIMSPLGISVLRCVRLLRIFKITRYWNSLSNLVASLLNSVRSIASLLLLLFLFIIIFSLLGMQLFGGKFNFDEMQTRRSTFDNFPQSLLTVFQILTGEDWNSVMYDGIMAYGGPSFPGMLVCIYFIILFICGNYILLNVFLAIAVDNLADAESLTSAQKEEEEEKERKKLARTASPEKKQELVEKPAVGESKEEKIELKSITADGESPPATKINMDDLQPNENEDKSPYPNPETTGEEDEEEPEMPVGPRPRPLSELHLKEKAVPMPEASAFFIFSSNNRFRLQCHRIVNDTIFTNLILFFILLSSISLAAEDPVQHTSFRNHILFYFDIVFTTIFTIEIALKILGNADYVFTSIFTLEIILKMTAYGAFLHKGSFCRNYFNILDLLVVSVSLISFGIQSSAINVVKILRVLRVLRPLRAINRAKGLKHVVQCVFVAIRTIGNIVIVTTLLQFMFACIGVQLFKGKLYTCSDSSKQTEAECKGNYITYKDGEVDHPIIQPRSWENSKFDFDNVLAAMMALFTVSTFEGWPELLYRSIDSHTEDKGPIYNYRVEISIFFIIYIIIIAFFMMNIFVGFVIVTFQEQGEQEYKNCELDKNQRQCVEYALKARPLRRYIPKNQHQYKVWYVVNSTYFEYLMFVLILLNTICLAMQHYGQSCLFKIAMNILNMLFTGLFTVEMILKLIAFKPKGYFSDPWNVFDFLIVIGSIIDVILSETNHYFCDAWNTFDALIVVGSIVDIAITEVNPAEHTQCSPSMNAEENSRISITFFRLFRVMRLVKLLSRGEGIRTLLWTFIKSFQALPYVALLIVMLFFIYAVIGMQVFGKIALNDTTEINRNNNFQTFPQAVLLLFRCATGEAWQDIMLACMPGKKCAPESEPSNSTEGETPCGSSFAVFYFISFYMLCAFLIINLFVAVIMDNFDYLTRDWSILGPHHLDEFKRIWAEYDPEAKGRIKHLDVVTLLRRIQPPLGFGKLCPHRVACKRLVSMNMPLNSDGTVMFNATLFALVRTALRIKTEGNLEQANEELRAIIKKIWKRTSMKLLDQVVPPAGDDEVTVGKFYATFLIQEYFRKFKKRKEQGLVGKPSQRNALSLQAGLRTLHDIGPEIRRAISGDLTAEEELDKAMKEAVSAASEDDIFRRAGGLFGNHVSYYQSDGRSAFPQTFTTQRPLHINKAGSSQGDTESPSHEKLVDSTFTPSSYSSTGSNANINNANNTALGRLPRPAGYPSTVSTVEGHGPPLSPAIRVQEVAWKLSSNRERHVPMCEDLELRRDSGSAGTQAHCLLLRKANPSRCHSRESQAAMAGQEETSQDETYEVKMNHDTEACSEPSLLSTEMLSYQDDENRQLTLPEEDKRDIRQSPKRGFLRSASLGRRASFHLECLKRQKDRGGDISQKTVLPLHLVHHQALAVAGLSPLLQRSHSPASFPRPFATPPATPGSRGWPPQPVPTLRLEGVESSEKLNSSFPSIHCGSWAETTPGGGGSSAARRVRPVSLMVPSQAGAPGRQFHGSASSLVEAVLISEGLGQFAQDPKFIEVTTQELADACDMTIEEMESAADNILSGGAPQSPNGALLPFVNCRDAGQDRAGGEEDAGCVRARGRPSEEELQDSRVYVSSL
Mitogen-activated protein kinase kinase kinase 11 (Homo sapiens), sequence (Q16584 whole entry, looked up): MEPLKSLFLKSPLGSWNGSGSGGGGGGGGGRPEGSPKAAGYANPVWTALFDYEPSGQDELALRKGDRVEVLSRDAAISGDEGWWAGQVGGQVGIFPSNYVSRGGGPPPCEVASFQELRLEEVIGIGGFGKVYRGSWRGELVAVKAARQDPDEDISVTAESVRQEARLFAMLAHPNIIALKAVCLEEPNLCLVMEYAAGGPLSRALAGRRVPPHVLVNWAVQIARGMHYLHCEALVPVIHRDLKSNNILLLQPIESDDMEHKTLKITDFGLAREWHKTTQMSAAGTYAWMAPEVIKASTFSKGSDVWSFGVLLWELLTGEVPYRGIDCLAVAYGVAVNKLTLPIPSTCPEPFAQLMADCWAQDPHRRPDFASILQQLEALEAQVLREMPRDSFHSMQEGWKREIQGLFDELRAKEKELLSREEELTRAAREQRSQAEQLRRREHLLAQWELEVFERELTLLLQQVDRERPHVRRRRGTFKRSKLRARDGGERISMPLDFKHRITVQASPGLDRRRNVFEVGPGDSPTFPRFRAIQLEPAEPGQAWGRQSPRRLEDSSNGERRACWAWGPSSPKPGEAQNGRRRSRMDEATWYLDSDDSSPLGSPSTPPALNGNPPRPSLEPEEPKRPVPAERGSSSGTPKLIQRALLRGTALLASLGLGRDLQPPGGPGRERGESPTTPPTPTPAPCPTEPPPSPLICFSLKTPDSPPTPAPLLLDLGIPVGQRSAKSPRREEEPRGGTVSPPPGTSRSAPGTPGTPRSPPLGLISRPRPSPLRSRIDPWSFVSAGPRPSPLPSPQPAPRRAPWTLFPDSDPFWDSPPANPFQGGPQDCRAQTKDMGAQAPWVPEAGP

- % of control ([1]; at 1 µM): 105%
- % of control ([1]; at 5 µM): 87%
- % of control ([3]; at 1 µM): 93%
- % of control ([3]; at 5 µM): 78%
Compound: C=CC(=O)Nc1cccc(C(=O)Nc2ccc(Nc3cc(-c4[nH]c(SC)nc4C)ccn3)cc2)c1
- % of control ([2]; at 1 µM): 97%
- % of control ([2]; at 5 µM): 73%

Compound: COc1cc(C(=O)N2CC[C@@H](O)[C@@H](N)C2)cc2nc(-c3cc4ccccc4n3CC3CC3)n(C)c12
- XC50 [4]: 3.98 µM

- % of inhibition [5]: -0.811%
Compound: Cn1cc(-n2cnc3c(NCc4nc5cc(Cl)c(Cl)cc5[nH]4)nc(N4CCOCC4)nc32)cn1

Compound: Cc1cc(F)c(C(=O)Nc2cccc(-c3nncn3C(C)C)n2)cc1-n1cnc(C2CC2)c1
- % of control [6]: 91%
